In patent US20120046251A1, “INHIBITORS OF SOLUBLE EPOXIDE HYDROLASE TO INHIBIT OR PREVENT NIACIN-INDUCED FLUSHING” (The Regents of the University of California, priority 2009, published 2012):
pIC50: −log10 of the molar value.

How the values were obtained:
[1] = test system: C57BL/6 mice; assay: Niacin-induced flushing: laser Doppler ear blood flow in anesthetized mice; assay type: in vivo, mouse; conditions: for peak ear tissue perfusion after niacin (composite, FIG. 9): i.p. 30 minutes before niacin 30 mg/kg, TPAU 0.01-1 mg/kg, others 4 mg/kg
Description: For the experiments, mice were anesthetized using Nembutal (50 mg/kg) given by intraperitoneal (I.P.) injection. […]
Laser Doppler ear blood flow: The change in ear flow was measured using a laser doppler flowmeter (BLF 21, on loan from Transonic Systems, Inc., Ithaca, N.Y.). […] The laser doppler probe was fitted with a sleeve of 2 mm length plastic tubing and attached to a micromanipulator to standardize the depth of the tissue being measured. Blood flow was measured at 30 second intervals before and during exposure to compounds. Baseline blood flow was established by the average of measurements over 5 min prior to injection of drug or vehicle. Data were analyzed as a fraction of baseline.
Mice were anesthetized with Nembutal™ (50 mg/kg) and ear cutaneous perfusion was measured as explained above. Animals were then injected with a niacin solution (30 mg/kg, in physiological saline) and response (% tissue perfusion) after 3 minutes measured.

[2] = test system: C57BL/6 mice; assay: PGD2-induced vasodilation/flushing, ear perfusion in mice; assay type: in vivo, mouse
Description: Mouse Model: C57BL/6 mice were obtained from Charles River Laboratories (location). sEHi knockout mice were generated at UC Davis using the C57BL/6 background [EnayetAllah, et al., J Biol. Chem. (2008) 283(52):36592-8]. For the experiments, mice were anesthetized using Nembutal (50 mg/kg) given by intraperitoneal (I.P.) injection. […]
Laser Doppler ear blood flow: The change in ear flow was measured using a laser doppler flowmeter (BLF 21, on loan from Transonic Systems, Inc., Ithaca, N.Y.). As described by Cheng et al [Proc Natl Acad Sci (2006) 103(17):6682-7] the flow probe was placed against the ventral aspect of the right ear of the anesthetized mouse. The laser doppler probe was fitted with a sleeve of 2 mm length plastic tubing and attached to a micromanipulator to standardize the depth of the tissue being measured. Blood flow was measured at 30 second intervals before and during exposure to compounds. Baseline blood flow was established by the average of measurements over 5 min prior to injection of drug or vehicle. Data were analyzed as a fraction of baseline.

[3] = test system: C57BL/6 mice; assay: Eicosanoid analysis by LC-MS/MS in plasma/serum of mice given niacin +/- sEHi; assay type: in vivo, mouse
[4] = test system: C57BL/6 mice; assay: Eicosanoid analysis by LC-MS in ear tissue of mice given niacin +/- sEHi; assay type: in vivo, mouse; conditions: for products of the 5-lipoxygenase pathway in ear tissue: niacin 30 mg/kg subcutaneously, TPAU 3 mg/kg pre-treatment, FIG. 10
Description: Samples were spiked with a suite of odd chain length analogs (surrogates) then solvent extracted and partially purified by passing through a solid phase (SP) extraction column using Oasis HLB cartridges. The loaded column was washed with 2 mL 2.5 mM H2PO4+10% methanol and dried under vacuum. Target analytes were eluted with 2 mL of ethyl acetate. The collected extracts were evaporated to dryness under nitrogen, re-dissolved in a final volume of 100 μL with methanol containing deuterated isomers of internal standards including prostaglandins, thromboxanes, epoxides, diols, of arachidonic acid, which allows accurate surrogate recovery calculations and stored at −20° C. until analysis. A 10-20 μL aliquot of each sample was separated by reversed phase HPLC chromatography on a 150 mm×2 mm I.D. 5 μm particle size C18 column using a gradient of water-0.1% acetic acid and 89:11 acetonitrile/methanol (v/v)-0.1% acetic acid. […] The system was calibrated with a minimum of five calibration solutions containing analytical targets at concentrations ranging from 1 to 1000 nM. The analysis of each sample was repeated three times. Calibration check solutions were analyzed at a minimum frequency of 10 hours to ensure stability of the analytical calibration throughout a given analysis.
As the flushing effect of niacin is essentially local rather than systemic, the effect of niacin +/−sEHi on ear tissue prostaglandins were also examined by LC-MS.
Products of the 5-lipoxygenase pathway are generally considered pro-inflammatory.

[5] = test system: COX-2 / COX-1; conditions: cited from earlier work
[6] = molecular target: T1, sEH (Homo sapiens, UniProt P34913); assay: sEH inhibition, assay not specified; assay type: biochemical
T1 sequence (P34913 1-555): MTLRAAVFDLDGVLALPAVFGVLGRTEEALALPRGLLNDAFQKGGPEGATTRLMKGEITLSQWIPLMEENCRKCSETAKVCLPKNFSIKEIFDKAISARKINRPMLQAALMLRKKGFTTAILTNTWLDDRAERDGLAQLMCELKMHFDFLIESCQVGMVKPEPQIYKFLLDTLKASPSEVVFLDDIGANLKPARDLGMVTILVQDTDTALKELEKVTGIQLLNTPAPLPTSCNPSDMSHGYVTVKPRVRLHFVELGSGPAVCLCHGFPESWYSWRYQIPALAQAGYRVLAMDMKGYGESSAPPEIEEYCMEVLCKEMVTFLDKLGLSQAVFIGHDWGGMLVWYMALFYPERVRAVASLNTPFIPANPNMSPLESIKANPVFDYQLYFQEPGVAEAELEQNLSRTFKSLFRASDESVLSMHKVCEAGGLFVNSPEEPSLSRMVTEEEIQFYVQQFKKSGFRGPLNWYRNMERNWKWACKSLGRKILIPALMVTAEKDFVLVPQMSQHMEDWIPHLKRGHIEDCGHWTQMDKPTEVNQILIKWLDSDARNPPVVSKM
Excerpt: (§1) (Both the 1- and the 2-adamantyl ureas have been tested and have about the same high activity as an inhibitor of sEH.) Thus, isomers of adamantyl dodecyl urea are preferred inhibitors. It is further expected that N,N′-dodecyl-cyclohexyl urea (DCU), and other inhibitors of sEH, and particularly dodecanoic acid ester derivatives of urea, are suitable for use in the methods of the invention.

[7] = Metabolic stability, method not given; assay type: in vitro ADME
Excerpt: as §1

[8] = molecular target: T1, sEH; assay: Inhibition of recombinant human sEH; assay type: biochemical
[9] = molecular target: T2, recombinant murine sEH (Mus musculus, UniProt P34914); assay: Inhibition of recombinant murine sEH; assay type: biochemical
T2 sequence (P34914 1-554): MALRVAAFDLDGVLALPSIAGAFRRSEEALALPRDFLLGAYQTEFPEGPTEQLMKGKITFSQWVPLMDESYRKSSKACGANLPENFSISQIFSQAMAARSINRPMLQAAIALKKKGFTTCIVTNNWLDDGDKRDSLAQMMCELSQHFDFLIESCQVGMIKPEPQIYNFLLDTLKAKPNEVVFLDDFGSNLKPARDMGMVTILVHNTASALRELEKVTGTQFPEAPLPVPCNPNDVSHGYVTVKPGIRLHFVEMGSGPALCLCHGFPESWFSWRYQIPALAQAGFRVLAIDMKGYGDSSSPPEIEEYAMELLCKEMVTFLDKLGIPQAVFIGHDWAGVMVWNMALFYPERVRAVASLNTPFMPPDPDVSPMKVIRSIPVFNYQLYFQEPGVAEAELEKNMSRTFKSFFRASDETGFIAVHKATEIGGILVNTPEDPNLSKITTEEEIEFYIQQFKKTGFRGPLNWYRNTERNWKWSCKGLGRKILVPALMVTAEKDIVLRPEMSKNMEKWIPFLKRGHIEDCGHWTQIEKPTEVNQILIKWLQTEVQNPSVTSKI

[10] = test system: mouse ear; assay: Capsaicin applied to the mouse ear: tissue perfusion; assay type: in vivo
Excerpt: Tachyphylaxis to the flushing effect of niacin is well known, although the mechanism has not been elucidated. […] Tachyphylaxis to the vasodilatory effect of capsaicin is likely mediated by repetitive activation of transient receptor potential channels, in particular TRPV1, with resultant desensitization and internalization. See, Fan et al., J Biol Chem (2009) 284:27884-91; Myers, et al., Neuron (2007) 54:847-50. […] Subsequently, mice were exposed to capsaicin daily for 3 days (treated topically, 4 times per day), resulting in abolition of the acute vasodilatory response (i.e. tachyphylaxis to capsaicin). […] Although the exact sequence of events following niacin exposure is not clear it seems that niacin activates a number of targets simultaneously.

[11] = 325 mg of aspirin, Dunn et al 1995; cited from earlier work
[12] = niacin 30 mg/kg, wild type mice, FIG. 6

CNC(=O)c1cc(Oc2ccc(NC(=O)Nc3ccc(Cl)c(C(F)(F)F)c3)cc2)ccn1 [sorafenib]
peak ear tissue perfusion after niacin (composite, FIG. 9) [1]: significantly reduced peak ear tissue perfusion

O=C(NC1CCN(C(=O)C(F)(F)F)CC1)NC12CC3CC(CC(C3)C1)C2 [TPAU, N-(1-(2,2,2-trifluoroethanoyl)piperidin-4-yl)-N′-(adamant-1-yl)urea]
PGD2-induced increase in perfusion ([2]; TPAU pretreatment at a concentration sufficient to inhibit niacin-induced perfusion increase, FIG. 4): did not limit the increase in perfusion with administration of PGD2 | PGD2 levels with niacin + sEHi ([3]; TPAU 3 mg/kg, FIG. 5): did not result in the expected reduction in PGD2 | niacin-induced reduction of plasma EETs and ratio EETs/DHETs ([3]; sEHi TPAU 3 mg/kg, niacin 30 mg/kg, FIG. 1-3): counters this reduction in EETs | products of the 5-lipoxygenase pathway in ear tissue [4]: limited or abrogated niacin-induced increases in products of the 5-lipoxygenase pathway | peak perfusion after niacin ([1]; TPAU 0.05 mg/kg to 1 mg/kg, FIG. 8): significant reduction in peak perfusion | flushing (% tissue perfusion 3 minutes after niacin) ([1]; TPAU 0.01 to 1 mg/kg, 1 hour prior to niacin 30 mg/kg, n=4-6): dose-dependently reduced flushing | peak ear tissue perfusion after niacin (composite, FIG. 9) [1]: significantly reduced peak ear tissue perfusion | dose giving total inhibition of flushing ([1]; mice, niacin 30 mg/kg): 0.3 mg/kg | Ki50 for inhibition of niacin-induced flushing ([1]; mice, niacin 30 mg/kg, TPAU pre-treatment): approximately 0.01 mg/kg

COc1ccc2c(c1)c(CC(=O)O)c(C)n2C(=O)c1ccc(Cl)cc1 [indomethacin]
COX-2 (IC50)/COX-1 (IC50) ratio [5]: 33

O=C(O)c1cccnc1 [niacin, pyridine-3-carboxylic acid]
plasma levels of EETs (total EETs or ratio EETs/DHETs) ([3]; niacin 30 mg/kg subcutaneous alone): reduced plasma levels of EETs | PGE2 levels in serum ([3]; niacin alone): without altering PGE2 levels | increase of PGD2 levels in serum ([3]; niacin alone): approximately 100% | ear tissue PGD2 level ([4]; LC-MS, unit not given): 33214 | products of the 5-lipoxygenase pathway in ear tissue [4]: increased products of the 5-lipoxygenase pathway | increase of ear tissue PGD2 ([4]; niacin vs control, P=0.09): 21% | increase in ear perfusion [1, 12]: ~400% | time of peak ear perfusion after injection [1, 12]: approximately 4 minutes

CCCCCCCCCCCCNC(=O)NC12CC3CC(CC(C3)C1)C2 [ADU, N-Adamantyl-N′-dodecyl urea]
activity on sEH [6]: particularly high activity on sEH | metabolic stability [7]: metabolically stable

COc1cc(CNC(=O)CCCC/C=C/C(C)C)ccc1O [capsaicin]
pIC50 [8]: 5.82 | pIC50 [9]: 5.82 | ear tissue perfusion after topical capsaicin [10]: time-dependent increase in tissue perfusion | vasodilatory response to niacin after capsaicin tachyphylaxis ([1]; capsaicin topically 4 times per day for 3 days, FIG. 11): blunted vasodilatory response | flushing response to niacin after capsaicin tachyphylaxis plus acute topical capsaicin ([1]; repeated capsaicin then acute topical capsaicin prior to niacin injection): abolished

CC(=O)Oc1ccccc1C(=O)O [aspirin]
COX-2 (IC50)/COX-1 (IC50) ratio [5]: 0.32 | effectiveness against niacin flushing [11]: more effective than 165 mg of aspirin or 200 mg ibuprofen | peak ear tissue perfusion after niacin (composite, FIG. 9) [1]: significantly reduced peak ear tissue perfusion

CC(C)(C)c1ccc(/C=C/C(=O)Nc2ccc3c(c2)OCCO3)cc1 [AMG9810]
flushing response to PGD2 ([2]; AMG9810 10 mg/kg IP, FIG. 12): blunted the biologic response to PGD2 | flushing response to niacin ([1]; AMG9810 10 mg/kg IP, in the animal tested): abolished the flushing response to niacin
